Source: ChEMBL document CHEMBL6153135, “Rational Design of a Potent, Selective, and Metabolically Stable CDK9 Inhibitor to Counteract Osimertinib Resistance through Mcl-1 Suppression and Enhanced BRD4 Co-Targeting” (J Med Chem, 2025)
Calls of active or inactive are those of the source. The rule behind the calls is not given here.

Columns and labels:
[1] = test system: Lung adenocarcinoma organoid; assay: Anti-tumor activity against Osimertinib-resistant patient (#0243)-derived human Lung adenocarcinoma organoid assessed as inhibition of cell viability measured after 96 hrs; assay type: functional, tissue-based; details: Neoplasm
[2] = Toxicity in BALB-c mouse xenografted with human NCI-H1975 cells assessed as decrease in body weight at 5 mg/kg, iv in presence of JQ1; assay type: organism-based; details: in vivo
NCI-H1975 [3] = assay: Antitumor activity against human NCI-H1975 cells xenografted in BALB-c nude mouse at 30 mg/kg, po administered on every two days relative to control; assay type: functional; details: NCI-H1975, 48 h, read-out: TGI
[4] = molecular target: Cyclin-dependent kinase 4/cyclin D1 (Homo sapiens) (UniProt P11802+P24385); assay: Inhibition of CDK4/Cyclin D1 (unknown origin) at 100 nM preincubated for 10 mins followed by substrate/ATP measured after 60 mins by ADP-Glo assay relative to control; assay type: protein-complex assay; details: time 70.0 min
[5] = Toxicity in BALB-c nude mouse xenografted with human NCI-H1975 cells assessed as pathological damage in kidney at 15 mg/kg, iv administered on every two days by H and E staining based analysis; assay type: organism-based; details: in vivo
[6] = Metabolic stability in human liver S9 fraction assessed as clearance measured for 5 to 60 mins by LC-MS/MS analysis; assay type: ADME, subcellular; details: time 5-60 min, read-out: CLH
[7] = test system: Osimertinib-resistant HCC827 cell; assay: Antitumor activity against human Osimertinib-resistant HCC827 cells xenografted in BALB-c nude mouse assessed as tumor growth inhibition at 5 mg/kg, iv; assay type: functional, organism-based
[8] = test system: Osimertinib-resistant HCC827 cell; assay: Downregulation of c-Myc level in human Osimertinib-resistant HCC827 cells in presence of JQ1 by RNA-Seq analysis; assay type: functional, cell-based
[9] = Metabolic stability in human liver microsomes assessed as half life measured for 5 to 60 mins by LC-MS/MS analysis; assay type: ADME, Microsome; details: time 5-60 min
[10] = molecular target: Glycogen synthase kinase-3 alpha (Homo sapiens) (UniProt P49840); assay: Inhibition of GSK3-alpha (unknown origin) at 100 nM preincubated for 10 mins followed by substrate/ATP measured after 60 mins by ADP-Glo assay relative to control; details: time 70.0 min
Chain of Glycogen synthase kinase-3 alpha (Homo sapiens) (P49840 2-483 limits assumed): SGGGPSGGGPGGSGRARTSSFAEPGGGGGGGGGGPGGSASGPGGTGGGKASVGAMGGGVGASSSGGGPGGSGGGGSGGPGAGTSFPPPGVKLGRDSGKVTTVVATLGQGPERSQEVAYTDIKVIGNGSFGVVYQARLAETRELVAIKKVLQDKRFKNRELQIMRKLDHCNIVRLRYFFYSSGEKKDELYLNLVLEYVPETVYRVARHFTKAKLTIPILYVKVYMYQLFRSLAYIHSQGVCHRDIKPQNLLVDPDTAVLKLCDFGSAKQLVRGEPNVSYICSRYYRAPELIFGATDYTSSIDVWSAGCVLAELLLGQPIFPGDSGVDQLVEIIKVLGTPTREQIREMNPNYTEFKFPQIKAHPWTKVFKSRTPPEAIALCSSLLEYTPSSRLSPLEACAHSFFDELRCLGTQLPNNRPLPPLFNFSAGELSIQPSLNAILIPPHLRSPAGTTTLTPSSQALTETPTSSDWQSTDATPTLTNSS

[11] = test system: Lewis lung carcinoma cell line; assay: Anti-proliferative activity against Lewis lung carcinoma cells assessed as cell inhibition measured after 72 hrs by MTT assay; assay type: functional, cell-based; details: Mus musculus
[12] = test system: Osimertinib-resistant NCI-H1975 cell; assay: Induction of apoptosis in human Osimertinib-resistant NCI-H1975 cells assessed as late apoptotic cells at 2 uM incubated for 16 hrs by Annexin V-FITC/PI staining based flow cytometry (reference value: 1.42 %); assay type: functional
[13] = test system: Lung adenocarcinoma organoid; assay: Anti-tumor activity against Osimertinib-resistant patient (#0243)-derived human Lung adenocarcinoma organoid assessed as inhibition of cell viability measured after 96 hrs relative to control; assay type: functional, Neoplasm
[14] = C0 in Sprague-Dawley rat at 2 mg/kg, iv; details: in vivo
[15] = AUC (0 to infinity) in Sprague-Dawley rat at 2 mg/kg, iv; assay type: ADME, organism-based; details: in vivo
[16] = test system: Osimertinib-resistant NCI-H1975 cell; assay: Anti-proliferative activity against human Osimertinib-resistant NCI-H1975 cells assessed as cell inhibition measured after 72 hrs by MTT assay; assay type: functional, cell-based
[17] = molecular target: CDK18/Cyclin Y (Homo sapiens) (UniProt Q07002+Q8ND76); assay: Inhibition of CDK18/Cyclin Y(unknown origin) at 100 nM preincubated for 10 mins followed by substrate/ATP measured after 60 mins by ADP-Glo assay relative to control; assay type: protein-complex assay; details: time 70.0 min
[18] = test system: Lung adenocarcinoma organoid; assay: Anti-tumor activity against multidrug-resistant patient (#2422)-derived human Lung adenocarcinoma organoid assessed as inhibition of cell viability measured after 96 hrs; assay type: functional, tissue-based; details: Neoplasm
[19] = Clearance in BALB/c mouse at 15 mg/kg, po; assay type: ADME, organism-based; details: in vivo
NCI-H1975 [20] = assay: Anti-proliferative activity against human NCI-H1975 cells assessed as cell inhibition measured after 72 hrs in presence of 500 nM JQ1 by MTT assay; assay type: functional, cell-based; details: NCI-H1975, 72 h
[21] = molecular target: CDK6/cyclin D1 (Homo sapiens) (UniProt P24385+Q00534); assay: Inhibition of CDK6/Cyclin D1(unknown origin) at 100 nM preincubated for 10 mins followed by substrate/ATP measured after 60 mins by ADP-Glo assay relative to control; assay type: protein-complex assay; details: time 70.0 min
[22] = Toxicity in BALB-c nude mouse xenografted with human NCI-H1975 cells assessed as pathological damage in lung at 15 mg/kg, iv administered on every two days by H and E staining based analysis; assay type: organism-based; details: in vivo
[23] = Selectivity ratio of IC50 for anti-proliferative activity against human Osimertinib-resistant HCC827 cells to IC50 for anti-proliferative activity against human Osimertinib-resistant HCC827 cells in presence of JQ1; assay type: functional
HCC827 = assay: Selectivity ratio of IC50 for anti-proliferative activity against human HCC827 cells to IC50 for anti-proliferative activity against human HCC827 cells in presence of JQ1; assay type: functional
[24] = Toxicity in BALB-c nude mouse xenografted with human NCI-H1975 cells assessed as pathological damage in spleen at 15 mg/kg, iv administered on every two days by H and E staining based analysis; assay type: organism-based; details: in vivo
[25] = Apparent volume of distribution in Sprague-Dawley rat at 20 mg/kg, po; assay type: ADME, organism-based; details: in vivo
NCI-H1975 [26] = assay: Anti-proliferative activity against human NCI-H1975 cells assessed as cell inhibition measured after 72 hrs in presence of 100 nM JQ1 by MTT assay; assay type: functional, cell-based; details: NCI-H1975, 72 h
[27] = Toxicity in BALB-c nude mouse xenografted with human NCI-H1975 cells assessed as pathological damage in liver at 15 mg/kg, iv administered on every two days by H and E staining based analysis; assay type: organism-based; details: in vivo
[28] = Metabolic stability in rat liver microsomes assessed as clearance measured for 5 to 60 mins by LC-MS/MS analysis; assay type: ADME, Microsome; details: time 5-60 min, read-out: CLH
[29] = test system: Osimertinib-resistant NCI-H1975 cell; assay: Induction of apoptosis in human Osimertinib-resistant NCI-H1975 cells assessed as late apoptotic cells at 0.5 uM incubated for 16 hrs by Annexin V-FITC/PI staining based flow cytometry (reference value: 1.42 %); assay type: functional
[30] = Metabolic stability in human liver S9 fraction assessed as half life measured for 5 to 60 mins by LC-MS/MS analysis; assay type: ADME, subcellular; details: time 5-60 min
[31] = test system: Osimertinib-resistant NCI-H1975 cell; assay: Anti-proliferative activity against human Osimertinib-resistant NCI-H1975 cells assessed as cell inhibition measured after 72 hrs in presence of 250 nM JQ1 by MTT assay; assay type: functional, cell-based
[32] = Toxicity in BALB-c nude mouse xenografted with human NCI-H1975 cells assessed as pathological damage in heart at 15 mg/kg, iv administered on every two days by H and E staining based analysis; assay type: organism-based; details: in vivo
[33] = Metabolic stability in mouse liver microsomes assessed as clearance measured for 5 to 60 mins by LC-MS/MS analysis; assay type: ADME, Microsome; details: time 5-60 min, read-out: CLH
[34] = molecular target: Homeodomain-interacting protein kinase 1 (Homo sapiens) (UniProt Q86Z02); assay: Inhibition of HIPK1 (unknown origin) at 100 nM preincubated for 10 mins followed by substrate/ATP measured after 60 mins by ADP-Glo assay relative to control; details: time 70.0 min
Chain of Homeodomain-interacting protein kinase 1 (Homo sapiens) (Q86Z02 whole entry, looked up): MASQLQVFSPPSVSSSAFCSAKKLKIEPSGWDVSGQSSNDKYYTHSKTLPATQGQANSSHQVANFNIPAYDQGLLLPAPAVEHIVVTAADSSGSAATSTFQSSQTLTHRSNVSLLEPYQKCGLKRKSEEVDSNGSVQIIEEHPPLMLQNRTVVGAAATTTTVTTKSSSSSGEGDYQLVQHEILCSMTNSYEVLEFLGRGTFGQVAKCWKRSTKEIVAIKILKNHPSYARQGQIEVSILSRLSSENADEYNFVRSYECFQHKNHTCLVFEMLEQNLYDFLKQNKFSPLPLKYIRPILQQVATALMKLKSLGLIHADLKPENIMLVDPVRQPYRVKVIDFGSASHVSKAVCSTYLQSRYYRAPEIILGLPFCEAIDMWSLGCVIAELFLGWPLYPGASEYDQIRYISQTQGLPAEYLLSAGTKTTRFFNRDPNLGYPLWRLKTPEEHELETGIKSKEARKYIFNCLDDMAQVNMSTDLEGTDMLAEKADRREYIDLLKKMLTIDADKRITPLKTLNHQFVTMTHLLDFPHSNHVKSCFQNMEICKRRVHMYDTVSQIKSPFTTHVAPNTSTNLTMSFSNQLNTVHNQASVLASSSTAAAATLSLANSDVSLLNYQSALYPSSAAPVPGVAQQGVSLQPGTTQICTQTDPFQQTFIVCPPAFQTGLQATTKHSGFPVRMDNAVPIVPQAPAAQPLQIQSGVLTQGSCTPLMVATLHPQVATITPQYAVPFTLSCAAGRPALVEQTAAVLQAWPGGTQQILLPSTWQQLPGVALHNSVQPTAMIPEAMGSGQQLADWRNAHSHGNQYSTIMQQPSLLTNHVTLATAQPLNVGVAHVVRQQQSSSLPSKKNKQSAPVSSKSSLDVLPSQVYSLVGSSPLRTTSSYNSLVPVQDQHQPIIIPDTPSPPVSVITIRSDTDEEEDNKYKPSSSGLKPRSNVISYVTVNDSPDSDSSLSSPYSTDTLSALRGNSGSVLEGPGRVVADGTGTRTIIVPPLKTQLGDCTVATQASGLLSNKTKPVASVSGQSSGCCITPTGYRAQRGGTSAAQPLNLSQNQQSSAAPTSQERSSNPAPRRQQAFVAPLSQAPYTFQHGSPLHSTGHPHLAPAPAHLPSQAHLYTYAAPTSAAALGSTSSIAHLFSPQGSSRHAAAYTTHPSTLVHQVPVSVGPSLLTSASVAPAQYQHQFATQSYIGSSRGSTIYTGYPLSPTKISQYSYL

[35] = molecular target: CDK3/Cyclin E (Homo sapiens) (UniProt P24864+Q00526); assay: Inhibition of CDK3/Cyclin E1 (unknown origin) at 100 nM preincubated for 10 mins followed by substrate/ATP measured after 60 mins by ADP-Glo assay relative to control; assay type: protein-complex assay; details: time 70.0 min
Chain of CDK3/Cyclin E (Homo sapiens) (P24864 whole entry, looked up): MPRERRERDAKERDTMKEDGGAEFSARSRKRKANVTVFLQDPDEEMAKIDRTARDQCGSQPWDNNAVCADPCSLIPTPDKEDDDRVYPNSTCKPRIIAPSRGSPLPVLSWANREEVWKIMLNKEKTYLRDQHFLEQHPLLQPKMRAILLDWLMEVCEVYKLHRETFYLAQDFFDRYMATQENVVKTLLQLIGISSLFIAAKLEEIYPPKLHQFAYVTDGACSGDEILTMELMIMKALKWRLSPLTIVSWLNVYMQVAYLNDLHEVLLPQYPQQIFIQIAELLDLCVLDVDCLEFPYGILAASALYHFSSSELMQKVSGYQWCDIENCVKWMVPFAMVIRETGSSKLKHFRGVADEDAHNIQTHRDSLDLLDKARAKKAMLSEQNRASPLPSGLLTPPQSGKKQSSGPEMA
Chain of CDK3/Cyclin E (Homo sapiens) (Q00526 whole entry, looked up): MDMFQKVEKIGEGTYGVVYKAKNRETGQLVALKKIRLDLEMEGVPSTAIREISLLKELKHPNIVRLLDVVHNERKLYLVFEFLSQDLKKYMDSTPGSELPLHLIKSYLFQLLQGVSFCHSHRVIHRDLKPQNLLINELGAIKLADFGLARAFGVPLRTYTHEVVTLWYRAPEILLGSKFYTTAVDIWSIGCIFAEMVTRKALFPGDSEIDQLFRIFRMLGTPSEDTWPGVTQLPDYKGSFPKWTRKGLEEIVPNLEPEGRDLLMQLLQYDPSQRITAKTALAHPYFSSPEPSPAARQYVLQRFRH

CC(=O)N1CCC(NC(=O)c2ccc3cc2OCCCCCCOc2cc(ccc2F)-c2nc(ncc2F)N3)CC1
IC50 [1]: < 10 nM
Activity [2]: Non-toxic
inhibition in vivo at 30 mg/kg (NCI-H1975 [3]): 52.5%
inhibition [4]: 25.7%
Activity [5]: Non-toxic
microsomal CLint [6]: 14.2 µL/min/mg
inhibition [7]: inactive
Activity [8]: Active
half-life [9]: 2.14 h
inhibition [10]: 97.5%
IC50 [11]: 170 nM
Activity [12]: 22%
Imax [13]: >98%
C0 [14]: 2527 ng/mL
AUC(0-inf) [15]: 2550 ng·h/mL
IC50 [16]: 50 nM
inhibition [17]: 5.98%
IC50 [18]: 121 nM
CL/F [19]: 350 mL/min/kg
IC50 (NCI-H1975 [20]): 4.7 nM
inhibition [21]: 33.1%
Activity [22]: Non-toxic
Ratio IC50 [23]: 10
Ratio IC50 (HCC827): 10
Activity [24]: Non-toxic
Vz [25]: 30 L/kg
IC50 (NCI-H1975 [26]): 133 nM
Activity [27]: Non-toxic
microsomal CLint [28]: 38.4 µL/min/mg
Activity [29]: 10%
half-life [30]: 1.62 h
IC50 [31]: 14.6 nM
Activity [32]: Non-toxic
microsomal CLint [33]: 21.6 µL/min/mg
inhibition [34]: 88.5%
inhibition [35]: 9.68%
